Source: patent US9079866B2, “Flap modulators” (JANSSEN PHARMACEUTICA NV, priority 2013, dated 2015)
Structures can show the parent of a compound that is named as a salt. Where two headings read alike, the source gives them in different places.

Assays:
human FLAP = human FLAP (Homo sapiens (Human), UniProt P20292); test: FLAP binding assay (HTRF format)
Summary of the method: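 Reported data take the mean of two different plates carrying duplicate samples and use the HTRF ratio as the measured signal.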

[1] = system: leukotriene pathway in human whole blood (LTB4 levels); test: Human whole blood assay (A23187-stimulated LTB4); format: cell-based; settings: Homo sapiens, read-out: LTB4 IC50 1:1
Summary of the method: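 Heparinised human whole blood, diluted 1:1 in RPMI, was pre-incubated with test compounds for 15 min at 37° Celsius, then stimulated with A23187 (7 μg/mL) for 30 min at 37° Celsius. Plasma LTB4 was measured by immunoassay kit; IC50 from 4-parameter fit; single replicate, at least one healthy donor.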

[2] = human FLAP wild type, HTRF format, average of two plates, duplicates
[3] = human whole blood diluted 1:1 in RPMI, A23187-stimulated LTB4

human FLAP, sequence (P20292 whole entry): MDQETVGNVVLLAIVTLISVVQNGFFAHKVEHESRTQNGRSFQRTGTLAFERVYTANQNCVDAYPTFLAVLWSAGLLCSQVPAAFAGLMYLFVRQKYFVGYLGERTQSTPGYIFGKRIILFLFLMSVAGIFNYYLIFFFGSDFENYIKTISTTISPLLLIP

| Ki (human FLAP; [2]) [nM] | IC50 [1, 3] [nM] | SMILES | Ki (human FLAP; read-out: FLAP Binding wild type HTRF Ki) [nM] | IC50 [1] [nM] |
| --- | --- | --- | --- | --- |
| 32 | 138 | Nc1ncc(-c2ccc(-c3ccc(C(F)(F)F)cc3S(N)(=O)=O)cc2F)cn1 [Example 322, 4′-(2-Aminopyrimidin-5-yl)-3′-fluoro-4-(trifluoromethyl)biphenyl-2-sulfonamide] | – | – |
| 15 | 119 | CN1CCN(S(=O)(=O)c2cc(C(F)(F)F)ccc2-c2ccc(-c3cnc(N)nc3)c(F)c2)CC1 [Example 328, 5-{3-Fluoro-2′-[(4-methylpiperazin-1-yl)sulfonyl]-4′-(trifluoromethyl)biphenyl-4-yl}pyrimidin-2-amine] | – | – |
| 14 | 62 | Nc1ncc(-c2ccc(-c3ccccc3Sc3ncncc3N)cc2F)cn1 [Example 331, 5-{2′-[(5-Aminopyrimidin-4-yl)sulfanyl]-3-fluorobiphenyl-4-yl}pyrimidin-2-amine formate salt] | – | – |
| 12 | 67 | Nc1cc(Sc2ccccc2-c2ccc(-c3cnc(N)nc3)c(F)c2)ncn1 [Example 334, 5-{2′-[(6-Aminopyrimidin-4-yl)sulfanyl]-3-fluorobiphenyl-4-yl}pyrimidin-2-amine formate salt] | – | – |
| 2 | 37 | Nc1ncc(-c2ccc(-c3ccccc3Sc3ccnc(N)n3)cc2F)cn1 [Example 335, 4-{[4′-(2-Aminopyrimidin-5-yl)-3′-fluorobiphenyl-2-yl]sulfanyl}pyrimidin-2-amine formate salt] | – | – |
| 4 | 65 | Nc1cncc(Sc2ccccc2-c2ccc(-c3cnc(N)nc3)c(F)c2)n1 [Example 336, 5-{2′-[(6-Aminopyrazin-2-yl)sulfanyl]-3-fluorobiphenyl-4-yl}pyrimidin-2-amine formate salt] | – | – |
| 4 | 57 | CCN(CC)S(=O)(=O)c1ccccc1-c1ccc(-c2ccc(N)nc2)c(F)c1 [Example 343, 4′-(6-Aminopyridin-3-yl)-N,N-diethyl-3′-fluoro-[1,1′-biphenyl]-2-sulfonamide] | – | – |
| 1 | 13 | CCC(C)(C)NS(=O)(=O)c1ccccc1-c1ccc(-c2ccc(N)nc2)c(F)c1 [Example 349, 4′-(6-Aminopyridin-3-yl)-3′-fluoro-N-(tert-pentyl)-[1,1′-biphenyl]-2-sulfonamide] | – | – |
| 1 | 20 | CC1(NS(=O)(=O)c2ccccc2-c2ccc(-c3ccc(N)nc3)c(F)c2)CCC1 [Example 353, 4′-(6-Aminopyridin-3-yl)-3′-fluoro-N-(1-methylcyclobutyl)-[, 1′-biphenyl]-2-sulfonamide] | – | – |

Second part, the molecule before the results:

| SMILES | Ki (human FLAP; [2]) [nM] | IC50 [1, 3] [nM] | Ki (human FLAP; read-out: FLAP Binding wild type HTRF Ki) [nM] | IC50 [1] [nM] |
| --- | --- | --- | --- | --- |
| CS(=O)(=O)c1cc(C(F)(F)F)ccc1-c1ccc(-c2cnc(N)nc2)c(F)c1 [Example 323, 5-[3-Fluoro-2′-(methylsulfonyl)-4′-(trifluoromethyl)biphenyl-4-yl]pyrimidin-2-amine] | 770 | 6640 | – | – |
| Nc1ncc(-c2ccc(-c3ccc(C(F)(F)F)cc3S(=O)(=O)N3CCNC(=O)C3)cc2F)cn1 [Example 324, 4-{[4′-(2-Aminopyrimidin-5-yl)-3′-fluoro-4-(trifluoromethyl)biphenyl-2-yl]sulfonyl}piperazin-2-one] | 19 | 101 | – | – |
| CNS(=O)(=O)c1cc(C(F)(F)F)ccc1-c1ccc(-c2cnc(N)nc2)c(F)c1 [Example 325, 4′-(2-Aminopyrimidin-5-yl)-3′-fluoro-N-methyl-4-(trifluoromethyl)biphenyl-2-sulfonamide] | 4 | 91 | – | – |
| Nc1ncc(-c2ccc(-c3ccc(C(F)(F)F)cc3S(=O)(=O)NCCO)cc2F)cn1 [Example 326, 4′-(2-Aminopyrimidin-5-yl)-3′-fluoro-N-(2-hydroxyethyl)-4-(trifluoromethyl)biphenyl-2-sulfonamide] | 3 | 29 | – | – |
| CCNS(=O)(=O)c1cc(C(F)(F)F)ccc1-c1ccc(-c2cnc(N)nc2)c(F)c1 [Example 327, 4′-(2-Aminopyrimidin-5-yl)-N-ethyl-3′-fluoro-4-(trifluoromethyl)biphenyl-2-sulfonamide] | 2 | 39 | – | – |
| Nc1cnc(Sc2ccccc2-c2ccc(-c3cnc(N)nc3)c(F)c2)nc1 [Example 329, 5-{2′-[(5-Aminopyrimidin-2-yl)sulfanyl]-3-fluorobiphenyl-4-yl}pyrimidin-2-amine formate salt] | 12 | 66 | – | – |
| Nc1ccnc(Sc2ccccc2-c2ccc(-c3cnc(N)nc3)c(F)c2)n1 [Example 330, 5-{2′-[(4-Aminopyrimidin-2-yl)sulfanyl]-3-fluorobiphenyl-4-yl}pyrimidin-2-amine formate salt] | – | 88 | 12 | – |
| Nc1ncc(-c2ccc(-c3ccccc3Sc3ncccn3)cc2F)cn1 [Example 332, 5-[3-Fluoro-2′-(pyrimidin-2-ylsulfanyl)biphenyl-4-yl]pyrimidin-2-amine hydrochloride] | 65 | 125 | – | – |
| Nc1ncc(-c2ccc(-c3ccccc3Sc3cnccn3)cc2F)cn1 [Example 333, 5-[3-Fluoro-2′-(pyrazin-2-ylsulfanyl)biphenyl-4-yl]pyrimidin-2-amine hydrochloride] | 45 | 671 | – | – |
| C[Si](C)(C)CCOCSc1ccccc1-c1ccc(-c2cnc(N)nc2)c(F)c1 [Example 340, 5-[3-Fluoro-2′-({[2-(trimethylsilyl)ethoxy]methyl}sulfanyl)biphenyl-4-yl]pyrimidin-2-amine] | 104 | – | – | 321 |
| CC(C)(C)NS(=O)(=O)c1ccccc1-c1ccc(-c2ccc(N)nc2)c(F)c1 [Example 342, 4′-(6-Aminopyridin-3-yl)-N-(tert-butyl)-3′-fluoro-[1,1′-biphenyl]-2-sulfonamide] | 2 | 117 | – | – |
| Nc1ccc(-c2ccc(-c3ccccc3S(=O)(=O)N3CCCC3)cc2F)cn1 [Example 344, 5-(3-Fluoro-2′-(pyrrolidin-1-ylsulfonyl)-[1,1′-biphenyl]-4-yl)pyridin-2-amine] | 81 | > 10000 | – | – |
| Nc1ccc(-c2ccc(-c3ccccc3S(=O)(=O)N3CCCCC3)cc2F)cn1 [Example 345, 5-(3-Fluoro-2′-(piperidin-1-ylsulfonyl)-[1,1′-biphenyl]-4-yl)pyridin-2-amine] | 28 | 259 | – | – |
| Nc1ccc(-c2ccc(-c3ccccc3S(=O)(=O)NC3CCCCC3)cc2F)cn1 [Example 346, 4′-(6-Aminopyridin-3-yl)-N-cyclohexyl-3′-fluoro-[1,1′-biphenyl]-2-sulfonamide] | 5 | 95 | – | – |
| CC(C)CNS(=O)(=O)c1ccccc1-c1ccc(-c2ccc(N)nc2)c(F)c1 [Example 348, 4′-(6-Aminopyridin-3-yl)-3′-fluoro-N-iso-butyl-[1,1′-biphenyl]-2-sulfonamide] | 5 | 106 | – | – |
| CC(C)(NS(=O)(=O)c1ccccc1-c1ccc(-c2ccc(N)nc2)c(F)c1)C(F)(F)F [Example 350, 4′-(6-Aminopyridin-3-yl)-3′-fluoro-N-(1,1,1-trifluoro-2-methylpropan-2-yl)-[1,1′-biphenyl]-2-sulfonamide] | 2 | 26 | – | – |
| Nc1ccc(-c2ccc(-c3ccccc3S(=O)(=O)N[C@@H](c3ccccc3)C(F)(F)F)cc2F)cn1 [Example 351, (S)-4′-(6-Aminopyridin-3-yl)-3′-fluoro-N-(2,2,2-trifluoro-1-phenylethyl)-[1,1′-biphenyl]-2-sulfonamide] | 17 | 297 | – | – |
